Reference: US20250091911A1, “NANOFILTRATION SYSTEM AND METHOD INCLUDING PRETREATMENT WITH GREEN SORPTION MEDIA” (University of Central Florida Research Foundation, Inc., priority 2023, published 2025)

How the values were obtained:
[1] = Fixed-bed column pretreatment of spiked C-23 canal water with CPS; conditions: for Removal via column C3: CPS column 3, 9 h; for Removal via column C1 / Removal via column C2 / average removal percentage by media: CPS; for Removal via column C1 / Removal via column C2: 9 h; for average removal percentage by media: triplicate columns
Experimental: (§1) The water samples were collected from the same site of the C-23 canal during both the dry and wet seasons. However, only wet season water samples were used in the experiment. The water samples were analyzed for both long-chain (PFOA and PFOS) and short-chain (Perfluorobutanoic acid [PFBA] and Perfluorobutanesulfonic acid [PFBS]) PFAS following the modified EPA 537.1 method (Shoemaker & Tettenhorst, 2020). Through this method, an aliquot of a 250 mL water sample containing analytes and internal standards is extracted via solid phase extraction. The extracted analytes and internal standards are then eluted with methanol and ammonium hydroxide in methanol solvent. Then the eluted samples are dried with nitrogen and reconstituted to 1 mL volume with a buffer solution. The samples are then injected into a C18 liquid chromatography column, and the PFAS compounds are separated by a gradient of pure methanol and 20 mM ammonium acetate. Finally, the eluted compounds are detected, and their concentrations are measured via tandem mass spectrometry. The method detection limits (MDLs) for PFBA, PFBS, PFOA, and PFOS were 0.5 ng·L^−1, 2 ng·L^−1, 0.5 ng·L^−1, and 1 ng·L^−1, respectively. The concentration of calcium ion (Ca^2+) was analyzed at Eurofins Flowers's Chemical Laboratories (Altamonte Springs, Florida) following EPA method 6010D using inductively coupled plasma optical emission spectroscopy (MDL=0.096 mg·L^−1). Total organic carbon (TOC) and dissolved organic carbon (DOC) were measured using a TOC analyzer following EPA method 415.3.
(§2) Water samples collected from the C-23 canal were first fortified with PFOS and PFOA and then used as influents to the pretreatment column containing one of the two green sorption media. Note the water samples were not fortified with PFBA and PFBS. The green sorption media effluent served as the feedwater for the nanofiltration unit of the proposed water treatment system. The nanofiltration membrane unit without any green sorption media-based pretreatment served as the “control.” The integration of a green sorption media (CPS or ZIPGEM) with crossflow nanofiltration is herein referred to as a water treatment system, denoted as CPS-nanofiltration or ZIPGEM-nanofiltration. The CPS and ZIPGEM column influents and effluents and nanofiltration permeates were analyzed for both long-chain (PFOS and PFOA) and short-chain (PFBS and PFBA) PFAS. FIG. 3 presents the green sorption media-nanofiltration hybrid treatment scheme.
(§3) C-23 canal water was stored in a walk-in refrigerator at […] after collection. For the pretreatment experiment, a total of 60 L of water was used as influents to the CPS and ZIPGEM columns. Although the raw water was spiked with 70 ng·L^−1 of PFOA and PFOS each, the short-chain PFAS (PFBA, PFBS) were at their indigenous concentrations. A peristaltic pump was used to deliver the water to the columns at a constant flowrate of 14 ml·min^−1. Three columns (triplicate) with 3 ft length and 4-inch diameter containing 2,600 ml of media were set up for each media, and all samples were analyzed in triplicate (FIG. 4). The fixed-bed column experiments were run for more than 48 h, and effluents were taken at different time intervals to be used as feedwaters for the nanofiltration treatment that followed. […] At least 5 L of column effluent were collected to be used as the nanofiltration feed, and the stated effluent at 9 h for CPS was collected from 0 h until 9 h, whereas effluent at 30 h for ZIPGEM was collected from 9 h until 30 h. The collected effluents from the column study were stored in a refrigerator until they were used for the nanofiltration experiment. FIG. 4 illustrates the experimental setup for the pretreatment CPS and ZIPGEM process.
(§4) The average removal efficiencies of each media pretreatment were calculated based on PFAS concentrations in the influents and effluents of triplicate columns, as disclosed in TABLE 5. […]

[2] = Fixed-bed column pretreatment of spiked C-23 canal water with ZIPGEM; conditions: for Removal via column C1: ZIPGEM column 1, 30 h; for Removal via column C2: ZIPGEM column 2, 30 h; for Removal via column C3 / average removal percentage by media: ZIPGEM; for Removal via column C3: 30 h; for average removal percentage by media: triplicate columns
Experimental: as §1, §2, §3, §4

**Q.** For O=C(O)C(F)(F)C(F)(F)C(F)(F)F [PFBA, Perfluorobutanoic acid], which “Removal via column C3” value [1] is on record?
**A.** 29%

**Q.** What about the “Removal via column C1” value [1] of the same compound?
**A.** 21%

**Q.** And the “Removal via column C2” value [1]?
**A.** 24%

**Q.** And the “average removal percentage by media” value [1]?
**A.** 25

**Q.** And the “Removal via column C1” value [2]?
**A.** 5%

**Q.** What about the “Removal via column C2” value [2] of the same compound?
**A.** 5%

**Q.** What about the “Removal via column C3” value [2] of the same compound?
**A.** 8%

**Q.** And the “average removal percentage by media” value [2]?
**A.** 6

**Q.** For O=S(=O)(O)C(F)(F)C(F)(F)C(F)(F)C(F)(F)F [PFBS, Perfluorobutanesulfonic acid], which “Removal via column C3” value [1] is on record?
**A.** 25%

**Q.** And the “Removal via column C1” value [1]?
**A.** 20%

**Q.** And the “Removal via column C2” value [1]?
**A.** 27%

**Q.** What about the “average removal percentage by media” value [1] of the same compound?
**A.** 24

**Q.** And the “Removal via column C1” value [2]?
**A.** 6%

**Q.** And the “Removal via column C2” value [2]?
**A.** 5%

**Q.** And the “Removal via column C3” value [2]?
**A.** −1%

**Q.** And the “average removal percentage by media” value [2]?
**A.** 3.3

**Q.** What does the source list for O=C(O)C(F)(F)C(F)(F)C(F)(F)C(F)(F)C(F)(F)C(F)(F)C(F)(F)F [PFOA, Perfluorooctanoic acid]?
**A.** Removal via column C3 [1]: 88%; Removal via column C1 [1]: 96%; Removal via column C2 [1]: 85%; average removal percentage by media [1]: 90; Removal via column C1 [2]: 19%; Removal via column C2 [2]: 19%; Removal via column C3 [2]: 4%; average removal percentage by media [2]: 14

**Q.** What does the source list for O=S(=O)(O)C(F)(F)C(F)(F)C(F)(F)C(F)(F)C(F)(F)C(F)(F)C(F)(F)C(F)(F)F [PFOS, Perfluorooctanesulfonic acid]?
**A.** Removal via column C3 [1]: 100%; Removal via column C1 [1]: 100%; Removal via column C2 [1]: 100%; average removal percentage by media [1]: 100; Removal via column C1 [2]: 100%; Removal via column C2 [2]: 100%; Removal via column C3 [2]: 100%; average removal percentage by media [2]: 100
